In US8959984B2, “Proteome-wide quantification of small molecule binding to cellular target proteins” (priority 2007, dated 2015):
Where two headings read alike, the source gives them in different places.

Experiments:
CaMKK1 = biological target: T1, CaMKK1 (Homo sapiens, UniProt Q8N5S9); test: binding to immobilized V16742 (IVA1/IVA2, HeLa lysate, MS)
T1 construct: endogenous in cells; host or cells: HeLa S3

WDR68 (IPI00006754) = test: binding to VI16742 beads (HeLa lysate, SILAC MS); parameters: species or system human
Description: (§1) In an alternative implementation of the chemical proteomic approach according to the invention, the broadly-selective pyrido[2,3-d]pyrimidine-based kinase inhibitor VI16742 has been used for affinity capture (FIG. 10a). […] As shown by gene ontology analysis, the corresponding molecular functions were highly over-represented in proteins specifically retained by the inhibitor resin (FIG. 10b).

CCNH (IPI00021305) = test: binding to VI16742 beads (HeLa lysate, SILAC MS); parameters: species or system human
Description: as §1

ERCC2 (IPI00029728) = test: binding to VI16742 beads (HeLa lysate, SILAC MS); parameters: species or system human
Description: as §1

LIMS1 (IPI00788612) = test: binding to VI16742 beads (HeLa lysate, SILAC MS); parameters: species or system human
Description: as §1

RIOK2 = biological target: T2, RIOK2 (Homo sapiens, UniProt Q9BVS4); test: binding to immobilized V16742 (IVA1/IVA2, HeLa lysate, MS)
T2 construct: endogenous in cells; host or cells: HeLa S3
T2 sequence (Q9BVS4 whole entry): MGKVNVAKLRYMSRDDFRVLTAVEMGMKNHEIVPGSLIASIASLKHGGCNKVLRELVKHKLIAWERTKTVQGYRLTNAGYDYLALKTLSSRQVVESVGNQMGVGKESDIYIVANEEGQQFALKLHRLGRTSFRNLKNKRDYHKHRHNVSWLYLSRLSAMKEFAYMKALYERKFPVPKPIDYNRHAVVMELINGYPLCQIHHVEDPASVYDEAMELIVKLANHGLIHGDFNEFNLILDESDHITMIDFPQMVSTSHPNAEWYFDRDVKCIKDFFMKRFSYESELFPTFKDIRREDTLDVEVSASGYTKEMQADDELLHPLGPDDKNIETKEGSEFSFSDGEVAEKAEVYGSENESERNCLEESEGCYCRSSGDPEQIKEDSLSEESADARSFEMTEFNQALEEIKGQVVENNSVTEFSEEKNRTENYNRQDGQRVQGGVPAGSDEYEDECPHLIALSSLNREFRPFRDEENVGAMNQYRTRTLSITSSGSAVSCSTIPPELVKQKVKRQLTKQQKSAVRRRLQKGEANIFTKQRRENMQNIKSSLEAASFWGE

DYRK1A = biological target: T3, DYRK1A (Homo sapiens, UniProt Q13627); test: as above
T3 construct: endogenous in cells; host or cells: HeLa S3

EphA2 = EphA2 (Homo sapiens, UniProt P29317); test: as above
EphA2, sequence (P29317 24-976): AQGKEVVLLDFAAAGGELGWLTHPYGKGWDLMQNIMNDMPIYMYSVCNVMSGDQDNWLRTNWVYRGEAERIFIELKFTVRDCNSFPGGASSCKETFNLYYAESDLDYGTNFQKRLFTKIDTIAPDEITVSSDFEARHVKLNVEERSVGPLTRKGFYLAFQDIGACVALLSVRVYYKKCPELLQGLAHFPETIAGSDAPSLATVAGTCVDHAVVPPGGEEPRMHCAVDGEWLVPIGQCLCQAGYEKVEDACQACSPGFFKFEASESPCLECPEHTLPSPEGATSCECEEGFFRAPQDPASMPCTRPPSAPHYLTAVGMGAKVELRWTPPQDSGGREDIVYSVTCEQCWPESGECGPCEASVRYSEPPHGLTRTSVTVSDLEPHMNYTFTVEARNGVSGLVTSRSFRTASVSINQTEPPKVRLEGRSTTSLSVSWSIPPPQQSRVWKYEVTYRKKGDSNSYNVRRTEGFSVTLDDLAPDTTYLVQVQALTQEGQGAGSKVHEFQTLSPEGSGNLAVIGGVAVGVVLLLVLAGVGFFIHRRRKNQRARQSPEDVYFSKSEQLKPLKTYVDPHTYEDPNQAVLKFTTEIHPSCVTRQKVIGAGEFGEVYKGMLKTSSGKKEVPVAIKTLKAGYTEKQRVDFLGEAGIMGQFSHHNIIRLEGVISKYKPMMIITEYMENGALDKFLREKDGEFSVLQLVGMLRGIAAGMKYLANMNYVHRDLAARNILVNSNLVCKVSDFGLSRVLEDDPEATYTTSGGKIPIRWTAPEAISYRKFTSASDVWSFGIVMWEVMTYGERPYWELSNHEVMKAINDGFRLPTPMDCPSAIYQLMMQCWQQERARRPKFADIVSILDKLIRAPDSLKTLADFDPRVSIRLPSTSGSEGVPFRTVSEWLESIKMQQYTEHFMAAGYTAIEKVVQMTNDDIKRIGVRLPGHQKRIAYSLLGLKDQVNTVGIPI

CK1d = CK1d (Homo sapiens, UniProt P48730); test: as above
CK1d, sequence (P48730 whole entry): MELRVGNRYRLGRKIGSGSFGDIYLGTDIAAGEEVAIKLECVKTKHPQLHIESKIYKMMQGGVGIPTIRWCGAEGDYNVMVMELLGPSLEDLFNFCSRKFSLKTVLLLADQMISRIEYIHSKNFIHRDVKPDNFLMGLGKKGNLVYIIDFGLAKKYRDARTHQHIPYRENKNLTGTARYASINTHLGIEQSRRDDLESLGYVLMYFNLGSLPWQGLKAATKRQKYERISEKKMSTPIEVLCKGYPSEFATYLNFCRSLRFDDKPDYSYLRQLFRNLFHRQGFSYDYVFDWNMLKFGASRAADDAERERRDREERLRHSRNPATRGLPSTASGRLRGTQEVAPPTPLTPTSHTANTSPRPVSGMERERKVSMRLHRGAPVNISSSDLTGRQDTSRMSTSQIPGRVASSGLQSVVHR

YES = YES (Homo sapiens, UniProt P07947); test: as above
YES, sequence (P07947 whole entry): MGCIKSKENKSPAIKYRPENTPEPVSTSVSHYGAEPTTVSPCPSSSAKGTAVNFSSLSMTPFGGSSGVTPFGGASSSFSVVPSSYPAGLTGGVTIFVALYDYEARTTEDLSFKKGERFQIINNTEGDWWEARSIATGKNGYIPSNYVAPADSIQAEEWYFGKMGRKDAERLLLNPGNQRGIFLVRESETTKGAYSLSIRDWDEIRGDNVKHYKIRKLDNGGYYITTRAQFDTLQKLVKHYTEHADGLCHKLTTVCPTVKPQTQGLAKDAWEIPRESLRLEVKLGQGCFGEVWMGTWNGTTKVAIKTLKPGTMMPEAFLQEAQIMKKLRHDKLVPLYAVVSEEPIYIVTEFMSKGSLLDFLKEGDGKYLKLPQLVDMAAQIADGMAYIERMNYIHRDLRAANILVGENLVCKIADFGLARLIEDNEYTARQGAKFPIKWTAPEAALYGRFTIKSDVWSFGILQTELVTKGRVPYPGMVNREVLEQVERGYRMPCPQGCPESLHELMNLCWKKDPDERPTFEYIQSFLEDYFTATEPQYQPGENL

ALK2 (ACVR1) = biological target: T4, ALK2 (ACVR1) (Homo sapiens, UniProt Q04771)
T4 sequence (Q04771 21-509): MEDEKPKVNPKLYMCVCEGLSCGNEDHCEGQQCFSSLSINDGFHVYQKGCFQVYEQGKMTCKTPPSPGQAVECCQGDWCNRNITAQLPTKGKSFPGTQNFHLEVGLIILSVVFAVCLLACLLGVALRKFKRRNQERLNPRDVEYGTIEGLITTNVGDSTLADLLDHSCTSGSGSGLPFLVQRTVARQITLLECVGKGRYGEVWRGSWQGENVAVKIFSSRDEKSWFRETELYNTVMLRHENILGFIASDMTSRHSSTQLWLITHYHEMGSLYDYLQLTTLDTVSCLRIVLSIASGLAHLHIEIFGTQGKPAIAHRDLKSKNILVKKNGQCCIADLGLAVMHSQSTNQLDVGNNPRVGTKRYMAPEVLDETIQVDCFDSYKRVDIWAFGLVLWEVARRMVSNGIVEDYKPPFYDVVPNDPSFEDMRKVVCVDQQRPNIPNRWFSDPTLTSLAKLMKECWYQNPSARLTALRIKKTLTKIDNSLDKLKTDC

NAMPT = NAMPT (Homo sapiens, UniProt P43490)
NAMPT, sequence (P43490 whole entry): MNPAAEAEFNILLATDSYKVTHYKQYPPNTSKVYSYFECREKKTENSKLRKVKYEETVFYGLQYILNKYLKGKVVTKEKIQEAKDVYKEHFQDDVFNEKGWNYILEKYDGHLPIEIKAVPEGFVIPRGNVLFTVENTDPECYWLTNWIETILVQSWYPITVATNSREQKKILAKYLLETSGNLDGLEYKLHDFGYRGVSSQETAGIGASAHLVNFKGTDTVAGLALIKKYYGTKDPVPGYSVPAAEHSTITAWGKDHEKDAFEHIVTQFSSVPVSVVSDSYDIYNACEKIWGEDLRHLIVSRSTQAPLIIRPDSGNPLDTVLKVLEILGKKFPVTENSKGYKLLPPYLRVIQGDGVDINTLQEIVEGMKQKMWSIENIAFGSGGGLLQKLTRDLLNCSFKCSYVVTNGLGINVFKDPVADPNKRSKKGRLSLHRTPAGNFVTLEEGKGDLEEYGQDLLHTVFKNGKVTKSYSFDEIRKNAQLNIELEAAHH

RPL27A = RPL27A (Homo sapiens, UniProt P46776)
[1] = average of two experiments, read-out: Kd Avg
[2] = control beads vs first incubation

T1 sequence (Q8N5S9 whole entry): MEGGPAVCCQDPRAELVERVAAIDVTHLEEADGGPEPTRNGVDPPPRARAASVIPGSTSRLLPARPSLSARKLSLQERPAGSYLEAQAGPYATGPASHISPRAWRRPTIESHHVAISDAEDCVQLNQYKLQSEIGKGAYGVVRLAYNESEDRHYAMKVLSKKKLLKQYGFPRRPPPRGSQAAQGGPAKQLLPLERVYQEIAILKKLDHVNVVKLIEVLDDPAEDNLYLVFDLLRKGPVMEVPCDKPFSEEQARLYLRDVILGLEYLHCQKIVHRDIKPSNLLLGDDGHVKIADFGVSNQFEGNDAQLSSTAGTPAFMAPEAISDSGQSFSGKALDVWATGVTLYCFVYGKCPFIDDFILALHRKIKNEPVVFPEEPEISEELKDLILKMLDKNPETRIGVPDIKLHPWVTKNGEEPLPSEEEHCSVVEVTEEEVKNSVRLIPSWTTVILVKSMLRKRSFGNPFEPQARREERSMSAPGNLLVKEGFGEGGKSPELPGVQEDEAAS

## CC(C)n1c(=O)ccc2cnc(Nc3ccc(OCCN)cc3)nc21 [V16742]
CaMKK1; Experiment 1, 1.87 μM 16742
  Percent bound at various 16742 conc: 2.08%
CaMKK1; Experiment 1, 8.74 μM 16742
  Percent bound at various 16742 conc: 10.67%
CaMKK1; Experiment 1, 52 μM 16742
  Percent bound at various 16742 conc: 63.34%
CaMKK1; Experiment 1, read-out: Kd
  Kd: 37.9 µM
CaMKK1; Experiment 2, 1.87 μM 16742
  Percent bound at various 16742 conc: 1.46%
CaMKK1; Experiment 2, 8.74 μM 16742
  Percent bound at various 16742 conc: 6.65%
CaMKK1; Experiment 2, 52 μM 16742
  Percent bound at various 16742 conc: 47.32%
CaMKK1; Experiment 2, read-out: Kd
  Kd: 63.9 µM
CaMKK1; [1]
  Kd: 50.9 µM
WDR68 (IPI00006754); 3 mg vs 1 mg lysate
  r (3 MG/1 MG LYSATE): 2.58
WDR68 (IPI00006754); 5 h vs 2.5 h incubation time
  r (5 h/2.5 h INC. TIME): 1.31
WDR68 (IPI00006754); [2]
  rAVERAGE (CTRL/1 INC): 0.17
WDR68 (IPI00006754); immobilized VI16742
  Ki: 249 µM
WDR68 (IPI00006754); second vs first incubation
  rAVERAGE (2 INC/1 INC): 0.83
CCNH (IPI00021305); [2]
  rAVERAGE (CTRL/1 INC): 0.05
CCNH (IPI00021305); immobilized VI16742
  Ki: 96.9 µM
CCNH (IPI00021305); second vs first incubation
  rAVERAGE (2 INC/1 INC): 0.65
ERCC2 (IPI00029728); [2]
  rAVERAGE (CTRL/1 INC): 0.17
ERCC2 (IPI00029728); immobilized VI16742
  Ki: 118 µM
ERCC2 (IPI00029728); second vs first incubation
  rAVERAGE (2 INC/1 INC): 0.69
LIMS1 (IPI00788612); [2]
  rAVERAGE (CTRL/1 INC): 0.04
LIMS1 (IPI00788612); immobilized VI16742
  Ki: 143 µM
LIMS1 (IPI00788612); second vs first incubation
  rAVERAGE (2 INC/1 INC): 0.73
RIOK2; Experiment 1, 8.74 μM 16742
  Percent bound at various 16742 conc: 11.61%
RIOK2; Experiment 1, 52 μM 16742
  Percent bound at various 16742 conc: 58.06%
RIOK2; Experiment 1, read-out: Kd
  Kd: 42.6 µM
RIOK2; Experiment 2, 1.87 μM 16742
  Percent bound at various 16742 conc: 1.55%
RIOK2; Experiment 2, 8.74 μM 16742
  Percent bound at various 16742 conc: 7.91%
RIOK2; Experiment 2, 52 μM 16742
  Percent bound at various 16742 conc: 48.34%
RIOK2; Experiment 2, read-out: Kd
  Kd: 60.8 µM
RIOK2; [1]
  Kd: 51.7 µM
DYRK1A; Experiment 1, 1.87 μM 16742
  Percent bound at various 16742 conc: 5.75%
DYRK1A; Experiment 1, 8.74 μM 16742
  Percent bound at various 16742 conc: 14.82%
DYRK1A; Experiment 1, 52 μM 16742
  Percent bound at various 16742 conc: 52.16%
DYRK1A; Experiment 1, read-out: Kd
  Kd: 47.8 µM
DYRK1A; Experiment 2, 1.87 μM 16742
  Percent bound at various 16742 conc: 1.08%
DYRK1A; Experiment 2, 8.74 μM 16742
  Percent bound at various 16742 conc: 3.76%
DYRK1A; Experiment 2, 52 μM 16742
  Percent bound at various 16742 conc: 28.11%
DYRK1A; Experiment 2, read-out: Kd
  Kd: 137 µM
DYRK1A; [1]
  Kd: 92.5 µM
EphA2
  Kd: 58.1 µM
EphA2; EphA2, Experiment 1, 1.87 μM 16742
  Percent bound at various 16742 conc: 3.91%
EphA2; EphA2, Experiment 1, 8.74 μM 16742
  Percent bound at various 16742 conc: 13.88%
EphA2; EphA2, Experiment 1, 52 μM 16742
  Percent bound at various 16742 conc: 54.66%
EphA2; EphA2, Experiment 2, 1.87 μM 16742
  Percent bound at various 16742 conc: 2.12%
EphA2; EphA2, Experiment 2, 8.74 μM 16742
  Percent bound at various 16742 conc: 7.66%
EphA2; EphA2, Experiment 2, 52 μM 16742
  Percent bound at various 16742 conc: 43.73%
EphA2; Kd, EphA2, Experiment 1
  Kd: 45.3 µM
EphA2; Kd, EphA2, Experiment 2
  Kd: 70.8 µM

## CC(C)n1c(=O)ccc2cnc(Nc3ccc(OCCN)cc3)nc21 [compound 16742]
CK1d; EXPERIMENT 1
  Percent bound at 1.87 μM 16742 conc: 16.07%
  Percent bound at 8.74 μM 16742 conc: 57.03%
  Percent bound at 52 μM 16742 conc: 87.27%
CK1d; EXPERIMENT 1, read-out: Kd
  Kd: 7.38 µM
CK1d; EXPERIMENT 2
  Percent bound at 1.87 μM 16742 conc: 19.73%
  Percent bound at 8.74 μM 16742 conc: 70.68%
  Percent bound at 52 μM 16742 conc: 87.40%
CK1d; EXPERIMENT 2, read-out: Kd
  Kd: 5.07 µM
CK1d; read-out: Kd Avg
  Kd: 6.23 µM
YES; EXPERIMENT 1
  Percent bound at 1.87 μM 16742 conc: 4.07%
  Percent bound at 8.74 μM 16742 conc: 25.17%
  Percent bound at 52 μM 16742 conc: 62.69%
YES; EXPERIMENT 1, read-out: Kd
  Kd: 29.3 µM
YES; EXPERIMENT 2
  Percent bound at 1.87 μM 16742 conc: 3.61%
  Percent bound at 8.74 μM 16742 conc: 15.31%
  Percent bound at 52 μM 16742 conc: 54.74%
YES; EXPERIMENT 2, read-out: Kd
  Kd: 44.3 µM
YES; read-out: Kd Avg
  Kd: 36.8 µM

## COc1cc2ncnc(Nc3ccc(F)c(Cl)c3)c2cc1OCCCN1CCOCC1 [gefitinib]
ALK2 (ACVR1)
  rAVERAGE (10 nM/0 nM Gef.): 0.76
  rAVERAGE (100 nM/0 nM Gef.): 1.25
  rAVERAGE (1000 nM/0 nM Gef.): 0.77
  rAVERAGE (10000 nM/0 nM Gef.): 0.85
NAMPT
  rAVERAGE (10 nM/0 nM Gef.): 0.71
  rAVERAGE (100 nM/0 nM Gef.): 0.74
  rAVERAGE (1000 nM/0 nM Gef.): 0.73
  rAVERAGE (10000 nM/0 nM Gef.): 0.92
RPL27A
  rAVERAGE (10 nM/0 nM Gef.): 0.87
  rAVERAGE (100 nM/0 nM Gef.): 1.05
  rAVERAGE (1000 nM/0 nM Gef.): 0.81
  rAVERAGE (10000 nM/0 nM Gef.): 1.03
